Measured values taken from patent US20240336606A1 (Suzhou Zelgen Biopharmaceuticals Co., Ltd., priority 2020, published 2024).
Structures can show the parent of a compound that is named as a salt.

How the values were obtained:
[1] = target: T1, binding of KRAS^G12C to SOS1 (Homo sapiens, UniProt Q07889); assay: Inhibition of the binding of KRAS^G12C to SOS1; settings: Tag1-SOS1 / Tag2-KRAS^G12C, 2 h incubation at room temperature; read-out: IC50 (nM), inhibitory activity on the binding of KRAS^G12C to SOS1
T1 construct: Tag1 (unspecified)
T1 sequence (Q07889 1-1333): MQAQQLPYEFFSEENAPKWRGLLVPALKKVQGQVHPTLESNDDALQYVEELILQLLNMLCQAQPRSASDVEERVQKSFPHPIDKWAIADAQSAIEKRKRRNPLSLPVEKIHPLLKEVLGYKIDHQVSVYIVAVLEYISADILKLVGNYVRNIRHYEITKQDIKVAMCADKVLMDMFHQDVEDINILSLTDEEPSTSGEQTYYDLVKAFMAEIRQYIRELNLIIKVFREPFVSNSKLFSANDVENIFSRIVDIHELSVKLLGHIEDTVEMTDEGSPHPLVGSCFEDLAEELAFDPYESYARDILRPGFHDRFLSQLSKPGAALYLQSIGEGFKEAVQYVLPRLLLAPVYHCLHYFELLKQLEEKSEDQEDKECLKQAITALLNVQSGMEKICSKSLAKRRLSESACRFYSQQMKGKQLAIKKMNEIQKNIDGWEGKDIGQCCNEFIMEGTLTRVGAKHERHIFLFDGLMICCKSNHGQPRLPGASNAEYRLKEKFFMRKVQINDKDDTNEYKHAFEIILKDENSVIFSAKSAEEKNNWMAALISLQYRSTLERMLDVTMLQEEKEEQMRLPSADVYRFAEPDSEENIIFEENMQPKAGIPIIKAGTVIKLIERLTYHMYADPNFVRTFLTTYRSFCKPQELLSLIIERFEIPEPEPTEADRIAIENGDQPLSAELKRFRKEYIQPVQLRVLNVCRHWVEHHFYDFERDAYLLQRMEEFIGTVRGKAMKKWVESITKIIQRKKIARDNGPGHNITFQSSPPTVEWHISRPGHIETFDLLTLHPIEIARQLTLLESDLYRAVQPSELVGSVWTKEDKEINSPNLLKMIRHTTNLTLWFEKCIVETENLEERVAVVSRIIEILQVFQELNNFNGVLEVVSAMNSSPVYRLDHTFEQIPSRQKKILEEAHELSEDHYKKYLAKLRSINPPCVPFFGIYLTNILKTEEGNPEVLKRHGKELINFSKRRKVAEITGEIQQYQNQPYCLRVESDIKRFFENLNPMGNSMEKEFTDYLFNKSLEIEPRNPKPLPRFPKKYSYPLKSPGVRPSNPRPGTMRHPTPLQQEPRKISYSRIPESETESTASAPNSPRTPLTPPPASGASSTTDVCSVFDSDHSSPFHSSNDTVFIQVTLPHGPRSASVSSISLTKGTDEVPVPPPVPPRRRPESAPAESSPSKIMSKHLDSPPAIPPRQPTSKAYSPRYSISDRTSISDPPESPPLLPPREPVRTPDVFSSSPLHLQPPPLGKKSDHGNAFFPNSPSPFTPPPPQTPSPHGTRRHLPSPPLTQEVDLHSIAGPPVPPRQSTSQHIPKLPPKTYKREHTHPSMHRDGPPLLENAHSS
Procedure: • (1) Gradient dilution of the test compounds: 10 mM mother solution (dissolved in 100% DMSO) was added to a 384-well test plate, the final content of DMSO being 0.25%.
(2) 5 μL of Tag1-SOS1 solution was added to the test plate, and 5 μL of dilution buffer was added to the control group.
(3) 5 μL of Tag2-KRAS^G12C solution was added to the test plate.
(4) 10 μL of Anti-Tag1-Tb3+ and Anti-Tag2-XL665 detection solution were added to the test plate. The plate was centrifuged at 1000 rpm for 1 min and incubated at room temperature for 2 h.
(6) The IC50 values for the compounds were finally calculated using GraphPad Prism software, and a curve was fit and plotted.
The inhibitory activity of the compounds of the examples of the present invention on the binding of KRAS^G12C enzyme to SOS1 is shown in Table 1.

H358 cells = assay: Inhibition of H358 cell proliferation (CellTiter-Glo 3D, 7 days); type: cell-based; settings: Homo sapiens, 168 h, NCI-H358, 7 days, read-out: IC50 (nM), inhibitory activity on H358 cell proliferation
Procedure: • (a) The cells were thawed in T75 cell culture flasks:
• (b) When 80-90% cell confluence was achieved, the cells were passaged.
The diluted test compounds were added to a 384-well cell culture plate using a nanoliter pipetting system, and duplicate wells were set. An equal volume of medium was added to the positive control group; an equal volume of DMSO was added to the negative control group. The plate was centrifuged at 1000 rpm at room temperature for 1 min.
The cells were inoculated into a) 384-well culture plate, an equal volume of cells was added to the negative control group, and only an equal volume of medium was added to the positive control group. The plate was centrifuged at 1000 rpm at room temperature for 1 min. The final concentration of DMSO in the final compounds was 0.5%. The plate was incubated in a thermostatic incubator at 37° C. with 5% CO2 for 7 days.
CellTiter-Glo® 3D was added to b) 384-well cell culture plate at 20 μL/well. The plate was shaken at 320 rpm in the dark for 20 min, and incubated at room temperature in the dark for 2 h. The luminescence values were read using an Envision multi-mode microplate reader.
The inhibition rates of the compounds at different concentrations were calculated in Excel, and then inhibition curves were plotted and relevant parameters including minimum inhibition rate, maximum inhibition rate and IC50 were calculated using GraphPad Prism software.

SMILES	IC50 [1] [nM]	IC50 (H358 cells) [nM]
COc1cc2nc(C)nc(N[C@H](C)c3cc(N)cc(C(F)(F)F)c3)c2cc1OCCOC1(C)COC1 [Example 61, (R)—N-(1-(3-Amino-5-(trifluoromethyl)phenyl)ethyl)-7-methoxy-2-methyl-6-(2-((3-methyloxetan-3-yl)oxy)ethoxy)quinazolin-4-amine]	3.7	–
COc1cc2nc(C)nc(N[C@H](C)c3cc(N)cc(C(F)(F)F)c3)c2cc1OCCOc1cccnc1 [Example 62, (R)—N-(1-(3-Amino-5-(trifluoromethyl)phenyl)ethyl)-7-methoxy-2-methyl-6-(2-(pyridin-3-yloxy)ethoxy)quinazolin-4-amine]	5.3	–
COCC1(C(C)Oc2cc3c(N[C@H](C)c4cc(N)cc(C(F)(F)F)c4)nc(C)nc3cc2OC)CC1 (stereo partly drawn) [Example 63, N—((R)-1-(3-Amino-5-(trifluoromethyl)phenyl)ethyl)-7-methoxy-6-(1-(1-(methoxymethyl)cyclopropyl)ethoxy)-2-methylquinazolin-4-amine]	12	–
COc1cc2nc(C)nc(N[C@H](C)c3cc(N)cc(C(F)(F)F)c3)c2cc1OCCOC1(C)CCC1 [Example 64, (R)—N-(1-(3-Amino-5-(trifluoromethyl)phenyl)ethyl)-7-methoxy-2-methyl-6-(2-(1-methylcyclobutoxy)ethoxy)quinazolin-4-amine]	8.7	–
COc1cc2nc(C)nc(N[C@H](C)c3cc(N)cc(C(F)(F)F)c3)c2cc1OCC1(C(C)OC)CC1 (stereo partly drawn) [Example 65, N—((R)-1-(3-Amino-5-(trifluoromethyl)phenyl)ethyl)-7-methoxy-6-((1-(1-methoxyethyl)cyclopropyl)methoxy)-2-methylquinazolin-4-amine]	16	–
COc1cc2nc(C)nc(N[C@H](C)c3cc(N)cc(C(F)(F)F)c3)c2cc1OCCO[C@H]1CCOC1 [Example 66, N—((R)-1-(3-Amino-5-(trifluoromethyl)phenyl)ethyl)-7-methoxy-2-methyl-6-(2-(((S)-tetrahydrofuran-3-yl)oxy)ethoxy)quinazolin-4-amine]	7	–
COc1cc2nc(C)nc(N[C@H](C)c3cc(N)cc(C(F)(F)F)c3)c2cc1OCCO[C@@H]1CCOC1 [Example 67, N—((R)-1-(3-Amino-5-(trifluoromethyl)phenyl)ethyl)-7-methoxy-2-methyl-6-(2-(((R)-tetrahydrofuran-3-yl)oxy)ethoxy)quinazolin-4-amine]	4.2	–
COc1cc2nc(C)nc(N[C@H](C)c3cc(N)cc(C(F)(F)F)c3)c2cc1OC[C@@H](C)OC1COC1 [Example 68, N—((R)-1-(3-Amino-5-(trifluoromethyl)phenyl)ethyl)-7-methoxy-2-methyl-6-((R)-2-(oxetan-3-yloxy)propoxy)quinazolin-4-amine]	6.2	–
COc1cc2nc(C)nc(N[C@H](C)c3cc(N)cc(C(F)(F)F)c3)c2cc1OC[C@H](C)OC1COC1 [Example 69, N—((R)-1-(3-Amino-5-(trifluoromethyl)phenyl)ethyl)-7-methoxy-2-methyl-6-((S)-2-(oxetan-3-yloxy)propoxy)quinazolin-4-amine]	6.2	–
COc1cc2nc(C)nc(N[C@H](C)c3cc(N)cc(C(F)(F)F)n3)c2cc1OCCOC1COC1 [Example 70, (R)—N-(1-(4-Amino-6-(trifluoromethyl)pyridin-2-yl)ethyl)-7-methoxy-2-methyl-6-(2-(oxetan-3-yloxy)ethoxy)quinazolin-4-amine]	24	–
COCCOc1cc2c(N[C@@H](C)c3cccc(C(F)(F)C(C)(C)O)c3F)nc(C)nc2cc1OC [Example 71, (S)-1,1-Difluoro-1-(2-fluoro-3-(1-((7-methoxy-6-(2-methoxyethoxy)-2-methylquinazolin-4-yl)amino)ethyl)phenyl)-2-methylpropan-2-ol formate]	314	–
COc1cc2nc(C)nc(N[C@H](C)c3cc(N)cc(C(F)(F)F)n3)c2cc1OCCOC1(C)CCC1 [Example 73, (R)—N-(1-(4-Amino-6-(trifluoromethyl)pyridin-2-yl)ethyl)-7-methoxy-2-methyl-6-(2-(1-methylcyclobutyloxy)ethoxy)quinazolin-4-amine]	15	–
COCCOc1cc2c(N[C@H](C)c3cc(C(F)(F)C(C)(C)O)ccn3)nc(C)nc2cc1OC [Example 75]	40	–
COCCOc1cc2c(N[C@H](C)c3cccc(C(F)(F)C(C)(C)O)n3)nc(C)nc2cc1OC [Example 76]	188	–
COCCOc1cc2c(N[C@H](C)c3cncc(C(F)(F)C(C)(C)O)c3)nc(C)nc2cc1OC [Example 77]	924	–
COCCOc1cc2c(N[C@H](C)c3cccc(S(N)(=O)=O)c3)nc(C)nc2cc1OC [Example 84, (R)-3-(1-((7-Methoxy-6-(2-methoxyethoxy)-2-methylquinazolin-4-yl)amino)ethyl)benzenes ulfonamide]	18	–
COCCOc1cc2c(N[C@H](C)c3cc(OC)cc(C(F)(F)C(C)(C)O)c3)nc(C)nc2cc1OC [Example 87, (R)-1,1-Difluoro-1-(3-methoxy-5-(1-((7-methoxy-6-(2-methoxyethoxy)-2-methylquinazolin-4-yl)amino)ethyl)phenyl)-2-methylpropan-2-ol]	170	–
COCCOc1cc2c(N[C@H](C)c3cccc(C(F)(F)C(C)(C)O)c3Cl)nc(C)nc2cc1OC [Example 88, (R)-1-(2-Chloro-3-(1-((7-methoxy-6-(2-methoxyethoxy)-2-methylquinazolin-4-yl)amino)ethyl)phenyl)-1,1-difluoro-2-methylpropan-2-ol]	20	–
COCCOc1cc2c(N[C@H](C)c3cccc(C(F)(F)C(C)(C)O)c3C)nc(C)nc2cc1OC [Example 90, (R)-1,1-Difluoro-1-(3-(1-((7-methoxy-6-(2-methoxyethoxy)-2-methylquinazolin-4-yl)amino)ethyl)-2-methylphenyl)-2-methylpropan-2-ol]	–	48.6
COCCOc1cc2c(N[C@H](C)c3cc(C#N)cc(C(F)(F)C(C)(C)O)c3)nc(C)nc2cc1OC [Example 91, (R)-3-(1,1-Difluoro-2-hydroxy-2-methylpropane)-5-(1-((7-methoxy-6-(2-methoxyethoxy)-2-methylquinazolin-4-yl)amino)ethyl)benzonitrile]	–	> 10000
COc1cc2nc(C)nc(N[C@H](C)c3cccc(C(F)(F)C(C)(C)O)c3F)c2cc1OCCOC1COC1 [Example 92, (R)-1,1-Difluoro-1-(2-fluoro-3-(1-((7-methoxy-2-methyl-6-(2-(oxetan-3-yloxy)ethoxy)quinazolin-4-yl)amino)ethyl)phenyl)-2-methylpropan-2-ol]	–	18.2
